Results as given in ChEMBL document CHEMBL5154819 (Eur J Med Chem, 2022).
≈ marks a conversion by molar mass, not a printed value.

Assays:
Mus musculus [1] = experiment: Analgesic activity in acetic acid induced ICR mouse assessed as average writhing times at 50 mg/kg, iv administered for 15 mins followed by acetic acid injection and measured within 15 mins (reference value: 26.1 +/- 16.3); format: functional; details: time 30 min, 0.5 h
Mus musculus [2] = experiment: Analgesic activity in acetic acid induced ICR mouse assessed as average writhing times at 25 mg/kg, iv administered for 15 mins followed by acetic acid injection and measured within 15 mins (reference value: 26.1 +/- 16.3); format: functional; details: time 30 min, 0.5 h
Mus musculus [3] = experiment: Antinociceptive activity in acetic acid induced ICR mouse assessed as inhibition effect at 25 mg/kg, iv administered for 15 mins followed by acetic acid injection and measured within 15 mins; format: functional; details: 0.5 h, time 30 min
Rattus norvegicus = species: Rattus norvegicus; experiment: Antiinflammatory activity in carrageenan-induced Sprague-Dawley rat assessed as paw withdrawal threshold measured after 2.5 hrs by paw pressure test; format: functional
Mus musculus [4] = experiment: Analgesic activity in acetic acid induced ICR mouse assessed as average writhing times at 12.50 mg/kg, iv administered for 15 mins followed by acetic acid injection and measured within 15 mins (reference value: 26.1 +/- 16.3); format: functional; details: dose 12.5 mg/kg, time 30 min, 0.5 h
Mus musculus [5] = experiment: Antinociceptive activity in acetic acid induced ICR mouse assessed as inhibition effect at 50 mg/kg, iv administered for 15 mins followed by acetic acid injection and measured within 15 mins; format: functional; details: 0.5 h, time 30 min
Mus musculus [6] = experiment: Analgesic activity in iv dosed ICR mouse assessed as reduction in acetic acid induced writhing administered for 15 mins followed by acetic acid injection and measured within 15 mins; format: functional; details: 0.5 h, time 30 min
Mus musculus [7] = experiment: Analgesic activity in acetic acid induced ICR mouse assessed as average writhing times at 3.13 mg/kg, iv administered for 15 mins followed by acetic acid injection and measured within 15 mins (reference value: 26.1 +/- 16.3); format: functional; details: time 30 min, 0.5 h
[8] = Aqueous solubility of the compound at pH 7.8; format: physicochemical
Mus musculus [9] = experiment: Analgesic activity in acetic acid induced ICR mouse assessed as average writhing times at 6.25 mg/kg, iv administered for 15 mins followed by acetic acid injection and measured within 15 mins (reference value: 26.1 +/- 16.3); format: functional; details: time 30 min, 0.5 h
Mus musculus [10] = experiment: Antinociceptive activity in acetic acid induced ICR mouse assessed as inhibition effect at 6.25 mg/kg, iv administered for 15 mins followed by acetic acid injection and measured within 15 mins; format: functional; details: 0.5 h, time 30 min
Mus musculus [11] = experiment: Antinociceptive activity in acetic acid induced ICR mouse assessed as inhibition effect at 12.50 mg/kg, iv administered for 15 mins followed by acetic acid injection and measured within 15 mins; format: functional; details: 0.5 h, time 30 min
[12] = Aqueous solubility of the compound
Mus musculus [13] = experiment: Antinociceptive activity in acetic acid induced ICR mouse assessed as inhibition effect at 3.13 mg/kg, iv administered for 15 mins followed by acetic acid injection and measured within 15 mins; format: functional; details: 0.5 h, time 30 min

Compound	Activity (Mus musculus [1])	Activity (Mus musculus [2])	inhibition in vivo at 25 mg/kg (Mus musculus [3]) [%]	ED50 (Rattus norvegicus) [mg/kg]	Activity (Mus musculus [4])	inhibition in vivo at 50 mg/kg (Mus musculus [5]) [%]	ED50 (Mus musculus [6]) [mg/kg]	Activity (Mus musculus [7])	solubility [8] [µg/mL]	Activity (Mus musculus [9])	inhibition in vivo at 6.25 mg/kg (Mus musculus [10]) [%]	inhibition in vivo at 12.5 mg/kg (Mus musculus [11]) [%]	solubility [12] [µg/mL]	inhibition in vivo at 3.13 mg/kg (Mus musculus [13]) [%]
CCC(=O)[N-]S(=O)(=O)c1ccc(-c2c(-c3ccccc3)noc2C)cc1.[Na+] [PARECOXIB SODIUM]	2.4	10.1	61.3	22.7	13.7	90.8	15.7	21	18000	22.2	14.9	47.5	–	–
CC(C)Cc1ccc(C(C)C(=O)O)cc1 (stereo not drawn) [IBUPROFEN]	–	3	88.5	21	4	–	5	21	–	6.1	76.6	84.7	21.9 (≈ 106 µM)	19.5
